Our source for the herbicidal activity values is patent US20240150303A1, “DIAMINOTRIAZINE COMPOUNDS” (BASF SE, priority 2021, published 2024).

Structures are written as SMILES.

What all share (test): greenhouse pre-emergence herbicidal test
What all share (format): in vivo

One test has as its system Echinocloa crus-galli. The source says: (§1) The seeds of the test plants were sown separately for each species. For the pre-emergence treatment, the active ingredients, which had been suspended or emulsified in water, were applied directly after sowing by means of finely distributing nozzles. The containers were irrigated gently to promote germination and growth and subsequently covered with transparent plastic hoods until the plants had rooted. This cover caused uniform germination of the test plants, unless this had been impaired by the active ingredients. […] The test period extended over 2 to 4 weeks. During this time, the plants were tended, and their response to the individual treatments was evaluated. Evaluation was carried out using a scale from 0 to 100. 100 means no emergence of the plants, or complete destruction of at least the aerial moieties, and 0 means no damage, or normal course of growth. A moderate herbicidal activity is given at values of at least 60, a good herbicidal activity is given at values of at least 70, and a very good herbicidal activity is given at values of at least 85. The plants used in the greenhouse experiments were of the following species: [table]

The subject of the next test is Setaria faberi.
Description: as §1

The next test concerns Amaranthus retroflexus.
Description: as §1

A further test has as its system Abutilon theophrasti. The source says: The culture containers used were plastic flowerpots containing loamy sand with approximately 3.0% of humus as the substrate. The seeds of the test plants were sown separately for each species.
For the pre-emergence treatment, the active ingredients, which had been suspended or emulsified in water, were applied directly after sowing by means of finely distributing nozzles.
The containers were irrigated gently to promote germination and growth and subsequently covered with transparent plastic hoods until the plants had rooted. This cover caused uniform germination of the test plants, unless this had been impaired by the active ingredients.
Depending on the species, the plants were kept at 10-25° C. or 20-35° C., respectively.
The test period extended over 2 to 4 weeks. During this time, the plants were tended, and their response to the individual treatments was evaluated.
Evaluation was carried out using a scale from 0 to 100. 100 means no emergence of the plants, or complete destruction of at least the aerial moieties, and 0 means no damage, or normal course of growth. A moderate herbicidal activity is given at values of at least 60, a good herbicidal activity is given at values of at least 70, and a very good herbicidal activity is given at values of at least 85.
The plants used in the greenhouse experiments were of the following species: […]

For the molecule `CC(F)c1nc(N)nc(Nc2c(Cl)cccc2OC(F)F)n1` (racemic) [Example 95], the herbicidal activity with Echinocloa crus-galli (62 g/ha), in the test on Setaria faberi (62 g/ha), with Amaranthus retroflexus (62 g/ha) and in the test with Abutilon theophrasti (62 g/ha) was 100% each time.
Consider `COc1c(Br)cc(Cl)c(C)c1Nc1nc(N)nc(C(C)(F)CBr)n1` (racemic) [Example 99], for which the herbicidal activity with Setaria faberi (62 g/ha), with Amaranthus retroflexus (62 g/ha) and in the test with Abutilon theophrasti (62 g/ha) was 100% in each case.
Take `Cc1c(Br)cc(F)c(OCc2ccccc2)c1Nc1nc(N)nc(C(C)(C)F)n1` [Example 6]: the herbicidal activity in the test with Echinocloa crus-galli (125 g/ha) is 100%; with Echinocloa crus-galli (250 g/ha) it was 85%; in the test on Setaria faberi (125 g/ha), 100%; in the test on Setaria faberi (250 g/ha), 100%; in the test on Abutilon theophrasti (125 g/ha) it was 100%; with Abutilon theophrasti (250 g/ha), 100%.
For the molecule `COc1c(F)cc(F)c(Cl)c1Nc1nc(N)nc(C(C)(C)F)n1` [Example 9], the herbicidal activity with Echinocloa crus-galli (32 g/ha) is 100%; in the test on Setaria faberi (250 g/ha), 95%; with Amaranthus retroflexus (32 g/ha), 100%; in the test on Amaranthus retroflexus (250 g/ha), 100%; in the test on Abutilon theophrasti (32 g/ha), 100%; in the test on Abutilon theophrasti (250 g/ha), 90%.
On to `COc1c(F)ccc(C)c1Nc1nc(N)nc(C(C)(C)F)n1` [Example 16], for which the herbicidal activity in the test on Echinocloa crus-galli (62 g/ha), in the test with Echinocloa crus-galli (250 g/ha), in the test with Amaranthus retroflexus (62 g/ha), in the test on Amaranthus retroflexus (250 g/ha), with Abutilon theophrasti (62 g/ha) and with Abutilon theophrasti (250 g/ha) was 100% in each case.
`COc1c(C)ccc(C)c1Nc1nc(N)nc(C(C)(C)OC)n1` [Example 17]: the herbicidal activity in the test with Echinocloa crus-galli (250 g/ha), with Amaranthus retroflexus (250 g/ha) and in the test on Abutilon theophrasti (250 g/ha) was 100% throughout.
On to `COc1c(C)ccc(C)c1Nc1nc(N)nc(C(C)F)n1` (centres unmarked) [Example 18], for which the herbicidal activity in the test with Echinocloa crus-galli (62.5 g/ha), in the test with Echinocloa crus-galli (250 g/ha), in the test on Amaranthus retroflexus (62.5 g/ha), with Amaranthus retroflexus (250 g/ha), with Abutilon theophrasti (62.5 g/ha) and in the test on Abutilon theophrasti (250 g/ha) was 100% throughout.
Turning to `COc1c(Br)cc(F)c(Cl)c1Nc1nc(N)nc(C(C)(C)F)n1` [Example 29], the herbicidal activity in the test with Setaria faberi (31 g/ha), with Setaria faberi (62 g/ha), in the test on Amaranthus retroflexus (31 g/ha), in the test with Amaranthus retroflexus (62 g/ha), in the test on Abutilon theophrasti (31 g/ha) and with Abutilon theophrasti (62 g/ha) was 100% in each case.
`COc1c(Cl)cc(Cl)c(C)c1Nc1nc(N)nc(C(C)(C)F)n1` [Example 34]: the herbicidal activity in the test on Echinocloa crus-galli (62.5 g/ha), in the test with Amaranthus retroflexus (62.5 g/ha) and in the test with Abutilon theophrasti (62.5 g/ha) was 100% throughout.
Consider `COc1c(Br)cc(Br)c(C)c1Nc1nc(N)nc(C(C)(C)F)n1` [Example 38], for which the herbicidal activity in the test on Echinocloa crus-galli (62.5 g/ha), in the test on Setaria faberi (62.5 g/ha), with Setaria faberi (250 g/ha), with Amaranthus retroflexus (62.5 g/ha), in the test with Amaranthus retroflexus (250 g/ha) and with Abutilon theophrasti (250 g/ha) was 100% in each case.
With `COc1c(Br)cc(Cl)c(C)c1Nc1nc(N)nc(C(C)(C)F)n1` [Example 39], the herbicidal activity in the test with Echinocloa crus-galli (62.5 g/ha), in the test on Setaria faberi (62 g/ha), in the test with Setaria faberi (62.5 g/ha), with Amaranthus retroflexus (62 g/ha), with Amaranthus retroflexus (62.5 g/ha) and in the test with Abutilon theophrasti (62 g/ha) was 100% each time.
As for `COc1c(Br)cc(F)c(Cl)c1Nc1nc(N)nc(C2(F)CCCC2)n1` [Example 40], the herbicidal activity with Echinocloa crus-galli (62 g/ha), with Echinocloa crus-galli (62.5 g/ha), with Setaria faberi (62 g/ha), with Setaria faberi (62.5 g/ha), with Amaranthus retroflexus (62.5 g/ha) and in the test with Abutilon theophrasti (62 g/ha) was 100% in each case.
As for `COc1c(Br)cc(F)c(Cl)c1Nc1nc(N)nc(C(C)F)n1` (centres unmarked) [Example 41], the herbicidal activity in the test with Echinocloa crus-galli (62 g/ha), in the test on Echinocloa crus-galli (62.5 g/ha), with Setaria faberi (62 g/ha), in the test with Setaria faberi (62.5 g/ha), in the test on Amaranthus retroflexus (62.5 g/ha) and with Abutilon theophrasti (62 g/ha) was 100% in each case.
`COc1c(F)ccc(Cl)c1Nc1nc(N)nc(C(C)(C)F)n1` [Example 49]: the herbicidal activity in the test with Echinocloa crus-galli (62 g/ha), in the test on Echinocloa crus-galli (62.5 g/ha), with Amaranthus retroflexus (62 g/ha), in the test on Amaranthus retroflexus (62.5 g/ha), in the test on Abutilon theophrasti (62 g/ha) and in the test on Abutilon theophrasti (62.5 g/ha) was 100% each time.
In the case of `C#CCOc1c(F)ccc(Cl)c1Nc1nc(N)nc(C(C)(C)F)n1` [Example 50], the herbicidal activity with Echinocloa crus-galli (62 g/ha) came to 100%; with Setaria faberi (31 g/ha), 100%; with Amaranthus retroflexus (31 g/ha), 100%; in the test on Amaranthus retroflexus (62 g/ha), 100%; in the test on Abutilon theophrasti (31 g/ha), 80%; in the test on Abutilon theophrasti (62 g/ha), 100%.
Turning to `CC#CCOc1c(F)ccc(Cl)c1Nc1nc(N)nc(C(C)(C)F)n1` [Example 51], the herbicidal activity with Echinocloa crus-galli (62 g/ha), with Setaria faberi (62 g/ha), with Amaranthus retroflexus (62 g/ha) and with Abutilon theophrasti (62 g/ha) was 100% in each case.
Consider `COc1c(F)cc(C)c(Cl)c1Nc1nc(N)nc(C(C)(C)F)n1` [Example 55], for which the herbicidal activity with Echinocloa crus-galli (62 g/ha), in the test with Echinocloa crus-galli (62.5 g/ha), with Setaria faberi (62 g/ha), in the test on Amaranthus retroflexus (62.5 g/ha), with Abutilon theophrasti (62 g/ha) and in the test on Abutilon theophrasti (62.5 g/ha) was 100% throughout.
Consider `C#CCOc1c(F)cc(C)c(Cl)c1Nc1nc(N)nc(C(C)(C)F)n1` [Example 56], for which the herbicidal activity with Echinocloa crus-galli (62 g/ha) is recorded as 100%; with Echinocloa crus-galli (62.5 g/ha), 90%; in the test with Setaria faberi (62 g/ha) it was 100%; in the test on Setaria faberi (62.5 g/ha) it was 100%; in the test with Abutilon theophrasti (62 g/ha), 100%; with Abutilon theophrasti (62.5 g/ha), 90%.
For the molecule `CC#CCOc1c(F)cc(C)c(Cl)c1Nc1nc(N)nc(C(C)(C)F)n1` [Example 57], the herbicidal activity in the test on Echinocloa crus-galli (31 g/ha) is 100%; in the test on Echinocloa crus-galli (62 g/ha), 100%; in the test on Setaria faberi (31 g/ha), 100%; with Setaria faberi (62 g/ha) it was 100%; with Amaranthus retroflexus (62 g/ha), 100%; in the test with Abutilon theophrasti (31 g/ha), 98%.
For the molecule `CC#CCOc1c(Cl)cc(C)c(Cl)c1Nc1nc(N)nc(C(C)(C)F)n1` [Example 65], the herbicidal activity in the test on Echinocloa crus-galli (62 g/ha), in the test on Setaria faberi (62 g/ha) and in the test with Abutilon theophrasti (62 g/ha) was 100% in each case.
Take `CCC(C)(F)c1nc(N)nc(Nc2c(C)c(F)cc(Br)c2OC)n1` (centres unmarked) [Example 79]: the herbicidal activity with Setaria faberi (62 g/ha), in the test on Amaranthus retroflexus (62 g/ha) and in the test on Abutilon theophrasti (62 g/ha) was 100% throughout.
As to `CCC(C)(F)c1nc(N)nc(Nc2c(C)c(F)cc(Cl)c2OC)n1` (centres unmarked) [Example 81], the herbicidal activity with Echinocloa crus-galli (62 g/ha), with Setaria faberi (62 g/ha) and with Abutilon theophrasti (62 g/ha) was 100% throughout.
For the molecule `COc1c(F)ccc(Cl)c1Nc1nc(N)nc(C(C)(F)F)n1` [Example 85], the herbicidal activity was 100% in the test with Echinocloa crus-galli (62 g/ha), 98% with Setaria faberi (62 g/ha) and 85% in the test on Abutilon theophrasti (62 g/ha).
